From patent EP2681209B1, “COMPOUNDS AND METHODS FOR THE TREATMENT OF PAIN AND OTHER DISORDERS” (Aquilus Pharmaceuticals, Inc, priority 2011, dated 2012)

Key:
[1] = test system: MMP-9; experiment: Gelatin zymography of mouse spinal cord for MMP-9 rebound effect; format: in vivo, mice
Description: There were three groups in the study comprising six mice for each group (Naive, control and compound 10 groups).

[2] = test system: FVB male mice; experiment: Spinal nerve ligation (SNL) mouse model of neuropathic pain, intraperitoneal administration, von Frey tactile allodynia test; format: in vivo; details: for 50% paw withdrawal threshold, Mean, Day 1 / 50% paw withdrawal threshold, Mean, Day 2 / 50% paw withdrawal threshold, Mean, Day 5 / 50% paw withdrawal threshold, Mean, Day 6 / 50% paw withdrawal threshold, Mean, Day 7: IP 100 µl/mouse (approx. 3.3mg/Kg) daily injections day 1-5; for 50% paw withdrawal threshold, Mean, Day 0 Postoperative Baseline: group baseline after SNL injury, before first IP injection, von Frey
Description: To measure the neuropathic pain inhibiting affects of the MMP inhibitors of the present invention, the spinal nerve ligation (SNL) mouse model was run on a select number of compounds. This model which began with the work of Bennet and coworkers (Bennet, G.J. et al. Pain, 33, (1988), 87-107) and was optimized by Kim and Chung (Kim, S.H.; Chung, J.M. Pain, 50, (1992), 355-363) entails first, under magnification, the removal of one-third of the transverse process and then identifying and then dissecting free the L5 spinal nerve from the adjacent L4 spinal nerve in the mouse. The L5 spinal nerve is then tightly ligated using 6.0 silk suture. The nerve injury leads to hyperalgesia which manifests itself by enhanced responses to mechanical, heat and/or cooling stimuli. In this case, mechanical hyperalgesia is tested via Von Frey monofilaments in which filaments of varying thicknesses and bending force are individually applied to the plantar surface of the foot of the mouse. The threshold force necessary for paw withdrawal decreases dramatically after the nerve surgery. Potent pain inhibitors will reverse this affect resulting in greater force needing to be applied to cause the rodent paw to withdrawal.
Tactile Allodynia Test. Mechanical allodynia was measured using the calibrated von Frey filaments (Semmes-Weinstein monofilaments; Stoelting, Wood Dale, IL, U.S.A.). The plantar surface of the left injured paw of each animal was tested as described by Chaplan et al. (Journal of Neuroscience Methods, 53, (1994), 55-63). The Fifty percent paw withdrawal threshold response was determined by sequentially increasing or decreasing the stimulus strength according to the "up-down method" of Dixon (Annual Review Pharmacology Toxicology, 20, (1980), 441-462). For mice, […] von Frey filaments were used, with approximately equal logarithmic incremental bending forces (von Frey number: 1.65, 2.36, 2.44, 2.83, 3.22, 3.61, 3.84, 4.08, and 4.17; equivalent to 0.005, 0.02, 0.03, 0.07, 0.17, 0.41, 0.69, 1.20, and 1.48g force, respectively).
Prior to testing, each animal was placed in a suspended clear plastic chamber with a wire mesh bottom and acclimated for 15 minutes. Testing was initiated with the 0.07 g (handle marking of 2.83) applied perpendicularly to the plantar surface of the affected hind paw; each filament was applied with enough pressure to cause a buckle effect. The absence of a paw lifting/withdrawal response after 6 s prompted the use of the next higher weight filament. Paw withdrawal, indicating a positive response, prompted the use of a weaker filament. After the initial positive response (i.e., paw withdrawal), the testing continued for four additional measurements, and was used to calculate the response threshold. Four consecutive positive responses received a score of 0.001 g, and five consecutive negative responses (i.e., no paw withdrawal) received a score of 1.5 g.
Analyses for Tactile Allodynia Testing. The 50% paw withdrawal threshold was calculated (PWT; Luo and Calcutt, J. Pharmacology Experimental Therapeutics, 303(3), (2002), 1199-1205; Chaplan et al. Journal of Neuroscience Methods, 53, (1994), 55-63) using the formula: 10(Xf + κδ)/10,000 [formula] where Xf is the final von Frey filament used (log units), κ is a value that analyzes the response pattern (taken from the table published by Chaplan et al., 1994), and δ is the mean difference between stimuli (log units).
Except for the mode of administration, number of mice/group and the number of injections and amount per injection of compound given, the rest of the study was done in the same manner (in regards to the surgeries and tactile allodynia testing and analysis) as Experiment 110. 3.2 mg of each of the MMP inhibitors #5 and #10 were dissolved in 320 microliters of DMSO. To the solution was then added 32 microliters of Tween 80, followed by 2850 microliters of phosphate buffered saline (PBS). This gave a final concentration of 10% DMSO, 1% Tween and 1mg/ml compound. […]

[3] = test system: MMP-2; experiment: Gelatin zymography of mouse spinal cord for MMP-2 rebound effect; format: in vivo, mice
[4] = target: Catalytic domain of MMP-9 (human recombinant) (Homo sapiens, UniProt P14780); experiment: biochemical; details: read-out: Average Percent Inhibition (MMP-9)
Catalytic domain of MMP-9 (human recombinant), sequence (P14780 107-444 limits assumed): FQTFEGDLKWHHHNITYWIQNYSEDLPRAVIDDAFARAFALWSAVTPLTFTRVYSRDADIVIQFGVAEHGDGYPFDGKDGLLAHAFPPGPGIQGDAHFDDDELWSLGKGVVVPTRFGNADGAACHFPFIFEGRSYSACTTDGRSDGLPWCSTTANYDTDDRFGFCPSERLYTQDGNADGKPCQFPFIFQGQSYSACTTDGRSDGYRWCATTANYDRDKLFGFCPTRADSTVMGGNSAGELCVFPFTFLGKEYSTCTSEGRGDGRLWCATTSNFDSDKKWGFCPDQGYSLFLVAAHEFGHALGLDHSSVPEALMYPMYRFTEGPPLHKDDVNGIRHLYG
Description: A concentration of MMP inhibitor of the present invention was tested (1 microMolar) in duplicate runs. […] The mixture of enzyme and compound in assay buffer was then thoroughly mixed and incubated for 60 minutes at 37 °C. Upon the completion of incubation, the assay was started by the addition of 10 µM of fluorescent substrate DNP-Pro-Cha-Gly-Cys(Me)-His-Ala-Lys(N-Me-Abz)-NH2 [Cha = β -cyclohexylalanyl; Abz = 2-aminobenzoyl (anthraniloyl)] (Kd - 7 microMolar).

[5] = 0.5 and 2 hours after naloxone precipitated withdrawal and cessation of compound administration, versus control
[6] = after discontinuation of compound in naloxone precipitated withdrawal model

Row | SMILES | MMP-9 levels in spinal cord [1, 5] | MMP-9 rebound effect due to discontinuation [1, 6] | 50% paw withdrawal threshold, Mean, Day 1 [2] [g] | 50% paw withdrawal threshold, Mean, Day 2 [2] [g] | 50% paw withdrawal threshold, Mean, Day 5 [2] [g] | 50% paw withdrawal threshold, Mean, Day 6 [2] [g] | 50% paw withdrawal threshold, Mean, Day 7 [2] [g] | 50% paw withdrawal threshold, Mean, Day 0 Postoperative Baseline [2] [g] | reversal of mechanical alodynia ([2]; i.p. administration, by day 5) | MMP-2 levels in spinal cord [3, 5] | MMP-2 rebound effect due to discontinuation [3, 6] | inhibition at 1 µM [4] [%]
1 | [2H]C([2H])([2H])c1ccc(C#Cc2ccc(S(=O)(=O)N[C@H](Cc3c[nH]c4ccccc34)C(=O)O)s2)cc1 [Compound 10, (R)-3-(1H-Indol-3-yl)-2-[5-(4-trideuteromethyl-phenylethynyl)-thiophene-2-sulfonylamino]-propionic acid-(D3, 98%)] | stayed the same or were slightly lower than the control | No evidence of a MMP-2 and/or MMP-9 rebound effect | 0.170 | 0.350 | 1.470 | 0.867 | 0.250 | 0.096 | complete reversal of mechanical alodynia by day 5 | stayed the same or were slightly lower than the control | No evidence of a MMP-2 and/or MMP-9 rebound effect | 
2 | Cc1ccc(C#Cc2ccc(S(=O)(=O)N[C@H](Cc3c[nH]c4ccccc34)C(=O)O)s2)cc1 [Compound 5, (R)-3-(1H-Indol-3-yl)-2-(5-p-tolylethynyl-thiophene-2-sulfonylamino)-propionic acid] |  |  | 0.078 | 0.117 | 0.238 | 0.099 | 0.128 | 0.046 |  |  |  | 82
